Entries after “also recorded” stand apart in the source; their conditions may differ. Where two headings read alike, the source gives them in different places.
Columns and labels:
Butyrylcholine esterase = Butyrylcholine esterase (Rattus norvegicus, UniProt Q9JKC1); settings: cited from earlier work
[1] = biological target: T1, butyrylcholine esterase of human serum origin (Homo sapiens, UniProt P06276); assay: biochemical; assay type: biochemical
T1 construct: butyrylcholine esterase of human serum origin; purchased Biogenesis, Poole, UK; host or cells: human serum

[2] = system: Hartley male guinea pig, urethane anesthesia; assay: Urine flow dynamic parameters with oxybutynin and compound A (Example 6); assay type: in vivo; settings: for Bladder volume, proportion for value before administration (%) / Maximum urine flow rate, proportion for value before administration (%) / Urination efficiency, proportion for value before administration (%): iv + oxybutynin 1 mg/kg, iv
Protocol: A Hartley male guinea pig with a body weight of about 500 g (Japan SLC Hamamatsu) was used. After urethane anesthesia (1.4 g/kg, i.p.), the medial incision of the lower abdomen was carried out, and the bladder was exposed. Two injection needles (20G) with which a polyethylene tube (PE-100, Becton Dickinson, Franklin Lakes, N.J., USA) was linked were inserted in the bladder, and one needle was used for injection of saline and another needle was used for measurement of the inner pressure of the bladder. Further, a cannula (PE-10, Becton Dickinson) for injection of phenylephrine was inserted in right common jugular vein. […] The amount of urine eliminated was measured by an electronic weighing machine (GX-400, A&D, Tokyo) and the inner pressure of the bladder was measured using a pressure transducer (AP641G, NIPPON KODEN Corporation, Tokyo). The analogue data of the weight of urine and the inner pressure of the bladder were inputted in a multi-channel data analyzer (MP-100A-CE, Biopac systems), and analyzed by a proprietary software (Acqknowledge 3.7.1, Biopac systems). The sampling interval of data was 0.1 sec and a low pass filter was applied to the data of discharge amount and urine flow rate at 0.5 Hz in order to remove noise. A delay time of 0.1 sec in weighing the urine was rectified, and the urine flow rate was determined by differentiating the value of discharge amount. The dynamic state parameter of the flow of urine below was measured. A bladder volume, the maximum urine flow rate, urination efficiency (=amount of urination/bladder volume). The effect of oxybutynin was analyzed by the paired t calibration and the concomitant use effect of the compound A was analyzed by Dunnett calibration.

[3] = system: Hartley male guinea pig, urethane anesthesia; assay: Pressure/flow study using guinea pig (Example 3); assay type: in vivo; settings: for Amount of urination, proportion for value before administration (%) / At maximum urine flow rate Inner pressure of bladder, proportion for value before administration (%) / Maximum urine flow rate, proportion for value before administration (%): i.v.; for Bladder compliance, proportion for value before administration (%) / Bladder volume, proportion for value before administration (%): iv
Protocol: A Hartley male guinea pig of 5 weeks old (Japan SLC) was used. After urethane anesthesia, the medial incision of the lower abdomen was carried out, and the bladder was exposed. Two injection needles (20G) with which a polyethylene tube (PE-100) was linked were inserted in the bladder, and one needle was used for injection of saline and another needle was used for measurement of the inner pressure of the bladder. The injection of saline was continuously carried out at a rate of 18 mL/h using a syringe pump (SP-100S, JMS, and Hiroshima), the injection was stopped after intermittent urination was confirmed 3 times at minimum, and the saline in the bladder was removed by suction. Injection was started again, and the injection was stopped when the raise of the inner pressure of the bladder just before urination was confirmed. The amount of urine excreted was measured by an electronic weighing machine (HX-400, A&D, and Tokyo) and the inner pressure of the bladder was measured using a pressure transducer (AP641G, NIPPON KODEN Corporation). The analogue data of the weight of urine and the inner pressure of the bladder were inputted in a multi-channel data analyzer (MP-100A-CE, Biopac systems), and analyzed by a proprietary software (Acqknowledge, Biopac systems). The sampling interval of data was 0.1 second and a low pass filter was applied to the data of discharge amount and urine flow rate at 0.5 Hz in order to remove noise. A delay time of 0.1 second in weighing the urine was rectified, and the urine flow rate was determined by differentiating the value of discharge amount. After a value before twice administration of the drug was measured, the drugs (the compound A, distigmine, neostigigmine and bethanechol) were intravenously administrated. Saline in the bladder was extracted after 10 minutes of administration of the compound A, bethanechol and neostigigmine and after 30 minutes of administration of distigmine, and injection was started again to measure data. The drugs were dissolved with distilled water so that administration volume was 0.5 mL/kg. Parameters (bladder volume, the amount of urination, the maximum urine flow rate, the inner pressure of the bladder at the maximum urine flow, bladder compliance) below were measured. The bladder compliance was calculated from intersection point (the threshold of bladder volume, threshold pressure) which was obtained by determining regression line in the respective curves of the inner pressure of the bladder at collection of urine and urinary reflex. The change rate before and after administration of the drug was calculated for the respective parameters and the calibration of significant difference was carried out by a solvent administration group and Dunnett calibration (Table 6 and Table 7).

[4] = biological target: T2, acetylcholine esterase of human erythrocyte origin (Homo sapiens, UniProt P22303); assay: biochemical; assay type: biochemical
T2 construct: acetylcholine esterase of human erythrocyte origin; purchased Sigma, St. Louis, Mo., USA; host or cells: human erythrocytes
Protocol: The AChE inhibitory activity and the BuChE inhibitory activity were determined by a thiocholine method (Ellman method) using acetylcholine esterase of human erythrocyte origin (Sigma, St. Louis, Mo., USA) and butyrylcholine esterase of human serum origin (Biogenesis, Poole, UK). Acetylcholine esterase or butyrylcholine esterase was diluted to a concentration of 0.2 IU/mL with 80 mM tris-HCL buffers (pH=7.4) containing 0.3% bovine serum albumin (BSA) to prepare an enzyme preparation. […] The stock solution was diluted at 3-fold common ratio with 10% DMSO and 80 mM tris-HCl buffers containing 0.3% BSA. On a 96 wells microplate, 20 μL of the drug solution with a given concentration, 30 μL of 80 mM tris-HCl buffers containing 0.3% BSA and 50 μL of the enzyme preparation were distributed, and incubated at room temperature for 1 hour after shaking for 10 seconds. […] For the respective drugs, the test was repeated twice. The % of control of the increase in light absorption was calculated at each concentration with respect to the respective drugs. % of control=increase in light absorption of drug/increase in light absorption of control×100

male SD rat = assay: Acetylcholine inductive salivation in rat (Example 5); assay type: in vivo; settings: for Amount of saliva secreted: rat
Protocol: (§1) A male SD rat (CLEA Japan Inc.) with a body weight of about 400 g or a Hartley male guinea pig with a body weight of 400 to 500 g (Japan SLC) were used. After urethane anesthesia, sanitary cotton preliminarily weighed was inserted in the mouth of the animal and acetylcholine was intravenously administrated. After 5 minutes, the sanitary cotton was taken out to be weighed and the amount of saliva secreted was measured. The drug was intravenously administrated at 10 min before the administration of acetylcholine. The effect of oxybutynin was analyzed by paired t calibration and the concomitant use effect of the compound A was analyzed by William calibration.

Hartley male guinea pig = assay: Acetylcholine inductive salivation in guinea pig (Example 5); assay type: in vivo
Protocol: as §1

bladder muscle = system: bladder muscle; parameters: species or system guinea pig

T2 sequence (P22303 32-617 isoform P22303-2 limits assumed): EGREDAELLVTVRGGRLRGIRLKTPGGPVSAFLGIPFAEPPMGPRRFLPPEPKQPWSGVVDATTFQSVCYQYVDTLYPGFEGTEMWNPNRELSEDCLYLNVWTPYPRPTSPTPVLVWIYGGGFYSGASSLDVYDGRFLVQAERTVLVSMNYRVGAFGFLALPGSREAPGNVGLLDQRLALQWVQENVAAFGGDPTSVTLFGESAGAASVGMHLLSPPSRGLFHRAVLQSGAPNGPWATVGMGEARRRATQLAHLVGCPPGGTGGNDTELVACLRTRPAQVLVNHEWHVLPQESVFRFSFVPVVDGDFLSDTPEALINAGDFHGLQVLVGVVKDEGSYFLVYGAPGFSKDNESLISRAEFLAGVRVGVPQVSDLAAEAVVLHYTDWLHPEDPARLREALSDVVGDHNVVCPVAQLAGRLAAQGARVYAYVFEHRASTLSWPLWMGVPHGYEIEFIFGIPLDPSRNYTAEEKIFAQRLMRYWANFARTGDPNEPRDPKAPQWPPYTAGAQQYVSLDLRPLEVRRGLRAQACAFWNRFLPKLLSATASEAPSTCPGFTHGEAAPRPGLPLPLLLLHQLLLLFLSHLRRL
Sequence of Butyrylcholine esterase (Q9JKC1 24-597): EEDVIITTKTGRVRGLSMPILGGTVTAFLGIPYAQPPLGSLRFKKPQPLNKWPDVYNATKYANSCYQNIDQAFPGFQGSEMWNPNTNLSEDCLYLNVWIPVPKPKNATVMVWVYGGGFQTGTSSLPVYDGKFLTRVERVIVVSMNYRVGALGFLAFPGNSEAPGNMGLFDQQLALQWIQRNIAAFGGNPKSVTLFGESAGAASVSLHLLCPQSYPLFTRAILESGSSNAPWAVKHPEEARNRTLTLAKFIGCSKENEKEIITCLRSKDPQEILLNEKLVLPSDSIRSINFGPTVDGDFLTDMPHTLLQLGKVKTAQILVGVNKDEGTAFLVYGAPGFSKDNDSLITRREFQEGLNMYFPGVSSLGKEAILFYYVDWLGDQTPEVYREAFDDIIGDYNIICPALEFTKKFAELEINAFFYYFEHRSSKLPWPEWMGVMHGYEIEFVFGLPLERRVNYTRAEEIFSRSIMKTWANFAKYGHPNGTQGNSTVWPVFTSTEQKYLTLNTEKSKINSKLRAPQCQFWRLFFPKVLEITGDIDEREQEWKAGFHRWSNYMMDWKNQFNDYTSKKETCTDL
T1 sequence (P06276 29-602): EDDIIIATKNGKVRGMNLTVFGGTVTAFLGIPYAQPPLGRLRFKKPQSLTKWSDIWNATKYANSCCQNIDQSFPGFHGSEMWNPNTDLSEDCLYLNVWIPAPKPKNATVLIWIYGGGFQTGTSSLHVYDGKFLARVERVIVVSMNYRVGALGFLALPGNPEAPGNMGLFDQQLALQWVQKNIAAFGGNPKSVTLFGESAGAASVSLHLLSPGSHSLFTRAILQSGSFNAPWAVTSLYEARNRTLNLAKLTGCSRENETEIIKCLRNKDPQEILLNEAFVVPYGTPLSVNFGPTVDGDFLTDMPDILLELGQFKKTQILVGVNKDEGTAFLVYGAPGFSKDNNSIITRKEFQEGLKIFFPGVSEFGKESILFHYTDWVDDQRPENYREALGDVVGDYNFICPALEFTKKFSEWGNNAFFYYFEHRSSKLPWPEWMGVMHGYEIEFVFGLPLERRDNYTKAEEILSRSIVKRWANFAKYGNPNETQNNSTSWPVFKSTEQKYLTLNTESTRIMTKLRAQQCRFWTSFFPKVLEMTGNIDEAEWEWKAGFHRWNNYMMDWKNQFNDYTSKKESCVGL

CNC(=O)Oc1ccc2c(c1)[C@]1(C)CCN(C)[C@@H]1N2C [Physostigmine]
IC50 (Butyrylcholine esterase; Literature 4, read-out: Butyrylcholine esterase inhibitory activity (IC50)): 16 nM | IC50 (Butyrylcholine esterase; Literature 6, read-out: Butyrylcholine esterase inhibitory activity (IC50)): 15 nM

O=C(CCC1CCN(Cc2cccc(F)c2)CC1)c1cc2c3c(c1)CCN3C(=O)CC2 [Compound A, 8-[3-[1-[(3-fluorophenyl)methyl]-4-piperidinyl]-1-oxopropyl]-1,2,5,6-tetrahydro-4H-pyrrolo[3,2,1-ij]quinolin-4-one]
inhibitory activity for human butyrylcholine esterase [1]: did not show inhibitory activity for human butyrylcholine esterase up to 10^−5 M | IC50 ([1]; mean value of twice tests, read-out: Butyrylcholine esterase IC50): > 10000 nM | Bladder volume, proportion for value before administration (%) ([2]; Compound A 0.003 mg/kg): 21.07 ± 4.65% | Maximum urine flow rate, proportion for value before administration (%) ([2]; Compound A 0.003 mg/kg): −34.88 ± 8.22% | Urination efficiency, proportion for value before administration (%) ([2]; Compound A 0.003 mg/kg): −61.67 ± 7.22% | Bladder volume, proportion for value before administration (%) ([2]; Compound A 0.01 mg/kg): 24.73 ± 7.05% | Maximum urine flow rate, proportion for value before administration (%) ([2]; Compound A 0.01 mg/kg): −9.04 ± 5.94 % | Urination efficiency, proportion for value before administration (%) ([2]; Compound A 0.01 mg/kg): −30.23 ± 10.48 % | action on bladder volume, maximum urine flow rate and urination efficiency ([2]; oxybutynin 1 mg/kg, compound A 0.003, 0.01 mg/kg with oxybutynin): acted antagonistically against the lowering of the maximum urine flow rate and urination efficiency but did not influence the increase of bladder volume | Amount of urination, proportion for value before administration (%) ([3]; 0.003 mg/kg): 150.2 ± 10.0 % | At maximum urine flow rate Inner pressure of bladder, proportion for value before administration (%) ([3]; 0.003 mg/kg): 117.5 ± 6.2% | Maximum urine flow rate, proportion for value before administration (%) ([3]; 0.003 mg/kg): 112.1 ± 9.7 % | Bladder compliance, proportion for value before administration (%) ([3]; 0.003 mg/kg): 75.2 ± 4.8% | Bladder volume, proportion for value before administration (%) ([3]; 0.003 mg/kg): 94.6 ± 5.8% | Amount of urination, proportion for value before administration (%) ([3]; 0.01 mg/kg): 165.2 ± 18.2 % | At maximum urine flow rate Inner pressure of bladder, proportion for value before administration (%) ([3]; 0.01 mg/kg): 110.9 ± 6.0% | Maximum urine flow rate, proportion for value before administration (%) ([3]; 0.01 mg/kg): 124.4 ± 10.3 % | Bladder compliance, proportion for value before administration (%) ([3]; 0.01 mg/kg): 82.6 ± 2.6% | Bladder volume, proportion for value before administration (%) ([3]; 0.01 mg/kg): 101.7 ± 5.0% | Amount of urination, proportion for value before administration (%) ([3]; 0.03 mg/kg): 164.0 ± 13.4 % | At maximum urine flow rate Inner pressure of bladder, proportion for value before administration (%) ([3]; 0.03 mg/kg): 116.9 ± 8.4% | Maximum urine flow rate, proportion for value before administration (%) ([3]; 0.03 mg/kg): 133.5 ± 15.3 % | Bladder compliance, proportion for value before administration (%) ([3]; 0.03 mg/kg): 95.9 ± 18.0% | Bladder volume, proportion for value before administration (%) ([3]; 0.03 mg/kg): 117.2 ± 9.0 % | change of the parameters at urination and at collection of urine (text) ([3]; intravenous administration): increased significantly the amount of urination and the maximum urine flow rate at 0.003 mg/kg or more; also recorded: the increase of the bladder volume was confirmed at 0.03 mg/kg, and did not influence the bladder compliance | Acetylcholine esterase selective inhibitory activity [4]: ≥ 6700 fold | inhibition of the activity of human acetylcholine esterase [4]: inhibited the activity of human acetylcholine esterase | Selectivity b/a ([4]; BuChE IC50/AChE IC50 (Table 2)): >6700 | IC50 ([4]; mean value of twice tests, read-out: Acetylcholine esterase IC50): 1.5 nM | action on acetylcholine-induced secretion of saliva (male SD rat; rat and guinea pig (Tables 9 and 10)): significantly antagonized | Amount of saliva secreted (male SD rat; Compound A 0.001 mg/kg + oxybutynin 0.1 mg/kg + acetylcholine 1 mg/kg): 0.22 ± 0.02 g | Amount of saliva secreted (male SD rat; Compound A 0.003 mg/kg + oxybutynin 0.1 mg/kg + acetylcholine 1 mg/kg): 0.26 ± 0.02 g | Amount of saliva secreted (male SD rat; Compound A 0.01 mg/kg + oxybutynin 0.1 mg/kg + acetylcholine 1 mg/kg): 0.49 ± 0.03 g | Amount of saliva secreted (Hartley male guinea pig; Compound A 0.003 mg/kg + oxybutynin 1 mg/kg + acetylcholine 1 mg/kg): 0.17 ± 0.03 g | Amount of saliva secreted (Hartley male guinea pig; Compound A 0.010 mg/kg + oxybutynin 1 mg/kg + acetylcholine 1 mg/kg): 0.27 ± 0.02 g | Tension (%) (bladder muscle; 0.003 μM, 30 minutes, change of basic tension, 100 mM KCl contraction = 100%): −0.55 ± 0.60% | Tension (%) (bladder muscle; 0.01 μM, 30 minutes, change of basic tension, 100 mM KCl contraction = 100%): −0.26 ± 0.38% | Tension (%) (bladder muscle; 0.03 μM, 30 minutes, change of basic tension, 100 mM KCl contraction = 100%): 0.13 ± 0.80% | Tension (%) (bladder muscle; 0.1 μM, 30 minutes, change of basic tension, 100 mM KCl contraction = 100%): −0.74 ± 0.60% | Tension (%) (bladder muscle; Table 5: Compound A 0.1 μM with iso-OMPA 10 μM): 1.96 ± 0.87 % | Tension (%) (bladder muscle; Table 5: Compound A 0.1 μM with iso-OMPA 100 μM): 5.43 ± 1.17 % | Tension (%) (bladder muscle; Table 5: Compound A 0.1 μM, iso-OMPA 0 μM): −0.47 ± 0.17% | effect on basic tension (bladder muscle; compound A used in combination with iso-OMPA): significant increase in the basic tension was confirmed | effect on basic tension (bladder muscle; drug alone): did not influence the basic tension
